For 54 molecules, logP and chromatographic logP results are on record in patent US7847108B2, “Oxathiin carboxamides” (Bayer CropScience AG, priority 2003, dated 2010).

One series in a line: logP determination by HPLC on reversed-phase column (EEC Directive 79/831 Annex V.A8). In kind it is physicochemical. Particulars: Table 1 logP / m.p., C18, 43° C., acidic range (pH 2.3). The method, then: The given logP values were determined in accordance with EEC Directive 79/831 Annex V.A8 by HPLC (High Performance Liquid Chromatography) on a reversed-phase column (C 18). Temperature: 43° C. […] Calibration was carried out using unbranched alkan-2-ones (having 3 to 16 carbon atoms) with known logP values (determination of the logP values by the retention times using linear interpolation between two successive alkanones).
`CC(C)CC(C)c1ccccc1NC(=O)C1=C(C(F)(F)F)OCC(C)S1` (stereo not drawn) [Example 3] came in with a logP of 4.24. For `CC1COC(C(F)(F)F)=C(C(=O)Nc2ccccc2C(C)CC(C)(C)C)S1` (stereo not drawn) [Example 4], the logP is 4.53.

`Cc1cc(-c2ccccc2NC(=O)C2=C(C(F)(F)F)OCC(C)S2)ccc1F` (stereo not drawn) [Example 5] gave a logP of 3.98. On to `CC1COC(C(F)(F)F)=C(C(=O)Nc2ccccc2-c2ccc(Cl)c(Cl)c2)S1` (stereo not drawn) [Example 6], for which the logP amounted to 4.26. The same measure, in the same setting: next, `CC1COC(C(F)(F)F)=C(C(=O)Nc2ccccc2-c2ccc(Cl)c(C(F)(F)F)c2)S1` (stereo not drawn) [Example 7]: 4.30; `CC(C)ON=Cc1ccc(-c2ccccc2NC(=O)C2=C(C(F)(F)F)OCC(C)S2)cc1` (stereo not drawn) [Example 8]: 4.57. Consider `CC1COC(C(F)(F)F)=C(C(=O)Nc2ccccc2-c2ccc(C(F)(F)F)cc2)S1` (stereo not drawn) [Example 9], for which the logP stood at 4.06. With `CCCON=Cc1ccc(-c2ccccc2NC(=O)C2=C(C(F)(F)F)OCCS2)cc1F` [Example 25], the logP is 4.42.

With `O=C(Nc1ccccc1C1CCCCC1)C1=C(C(F)(F)F)OCCS1` [Example 28], the logP stood at 3.69.

Turning to `O=C(Nc1ccccc1-c1ccc(Cl)c(C(F)(F)F)c1)C1=C(C(F)(F)F)OCCS1` [Example 30], the logP worked out at 4.03. As for `CC(CC1CCCCC1)c1ccccc1NC(=O)C1=C(C(F)(F)F)OCCS1` (stereo not drawn) [Example 31], the logP is listed as 4.71. With `O=C(Nc1ccccc1-c1cc(F)cc(F)c1)C1=C(C(F)(F)F)OCCS1` [Example 32], the logP is recorded as 3.35. Molecule `O=C(Nc1ccccc1-c1ccc(I)cc1)C1=C(C(F)(F)F)OCCS1` [Example 33] yielded a logP of 3.85.

Turning to `C=CCC(C)c1ccccc1NC(=O)C1=C(C(F)(F)F)OCCS1` (stereo not drawn) [Example 34], the logP amounted to 3.33. `Cc1ccc(-c2ccccc2NC(=O)C2=C(C(F)(F)F)OCCS2)cc1F` [Example 36] had a logP of 3.62. `CCCC(C)c1ccccc1NC(=O)C1=C(C(F)(F)F)OCCS1` (stereo not drawn) [Example 39] returned a logP of 3.63. Consider `C#CCON=C(C)c1ccc(-c2ccccc2NC(=O)C2=C(C(F)(F)F)OCCS2)cc1` [Example 40], for which the logP stood at 3.76. Molecule `CON=C(N)c1ccc(-c2ccccc2NC(=O)C2=C(C(F)(F)F)OCCS2)cc1` [Example 41] showed a logP of 1.96. `CCCCCCCCC(C)c1ccccc1NC(=O)C1=C(C(F)(F)F)OCCS1` (stereo not drawn) [Example 42]: the logP is 5.48. Still for that read-out and setting: next, `O=C(Nc1ccccc1-c1cc(F)cc(Cl)c1)C1=C(C(F)(F)F)OCCS1` [Example 44]: 3.60; `CON=C(C)c1ccc(-c2ccccc2NC(=O)C2=C(C(F)(F)F)OCCS2)cc1Cl` [Example 45]: 3.45. In turn, `CON=C(C)c1ccc(-c2ccccc2NC(=O)C2=C(C(F)(F)F)OCCS2)cc1F` [Example 46] returned a logP of 3.69. The molecule `CCCCCC(C)c1ccccc1NC(=O)C1=C(C(F)(F)F)OCCS1` (stereo not drawn) [Example 48] came in with a logP of 4.34. On the same count and under the same terms, next, `CC(c1ccccc1NC(=O)C1=C(C(F)(F)F)OCCS1)C1CCCCC1` (stereo not drawn) [Example 49]: 4.31; `CC(C)CC(C)c1cc(F)ccc1NC(=O)C1=C(C(F)(F)F)OCCS1` (stereo not drawn) [Example 50]: 3.94; `CCC(CC)c1ccccc1NC(=O)C1=C(C(F)(F)F)OCCS1` [Example 51]: 3.62. `CCCC(C)c1cc(F)ccc1NC(=O)C1=C(C(F)(F)F)OCCS1` (stereo not drawn) [Example 52]: the lipophilicity (logP) is listed as 3.67. Molecule `CCC(C)CC(C)c1ccccc1NC(=O)C1=C(C(F)(F)F)OCCS1` (stereo not drawn) [Example 54] had a logP of 4.25. The same measure, in the same setting: next, `CC(CC1CC1(Cl)Cl)c1ccccc1NC(=O)C1=C(C(F)(F)F)OCCS1` (stereo not drawn) [Example 55]: 3.92; `CCC(C)(C)CC(C)c1ccccc1NC(=O)C1=C(C(F)(F)F)OCCS1` (stereo not drawn) [Example 58]: 4.48; `CC1CSC(C(=O)Nc2ccccc2C2CC3CCC2C3)=C(C(F)(F)F)O1` (stereo not drawn) [Example 59]: 5.36. Regarding `CC1CC(C)(C)c2cccc(NC(=O)C3=C(C(F)(F)F)OCCS3)c21` (stereo not drawn) [Example 60], the logP was found to be 4.18. The same measure, in the same setting: next, `CC1CSC(C(=O)Nc2ccccc2-c2ccc(C(F)(F)F)cc2)=C(C(F)(F)F)O1` (stereo not drawn) [Example 61]: 4.08; `CON=Cc1ccc(-c2ccccc2NC(=O)C2=C(C(F)(F)F)OC(C)CS2)cc1` (stereo not drawn) [Example 62]: 3.81. `CC(C)CC(C)c1ccccc1NC(=O)C1=C(C(F)(F)F)OC(C)CS1` (stereo not drawn) [Example 63] displayed a logP of 4.27. As to `CC(C)ON=Cc1ccc(-c2ccccc2NC(=O)C2=C(C(F)(F)F)OC(C)CS2)cc1` (stereo not drawn) [Example 64], the lipophilicity (logP) stood at 4.56. Same read-out and setting: next, `CC1CSC(C(=O)Nc2ccccc2-c2ccc(Cl)c(Cl)c2)=C(C(F)(F)F)O1` (stereo not drawn) [Example 65]: 4.27; `CC1CSC(C(=O)Nc2ccccc2C(C)CC(C)(C)C)=C(C(F)(F)F)O1` (stereo not drawn) [Example 66]: 4.51. Molecule `CC1CSC(C(=O)Nc2ccc(F)cc2-c2ccc(Cl)c(Cl)c2)=C(C(F)(F)F)O1` (stereo not drawn) [Example 67] came in with a lipophilicity (logP) of 4.32. Same read-out and setting: next, `CCCON=Cc1ccc(-c2ccccc2NC(=O)C2=C(C(F)(F)F)OC(C)CS2)cc1F` (stereo not drawn) [Example 68]: 4.77; `Cc1ccc(-c2ccccc2NC(=O)C2=C(C(F)(F)F)OC(C)CS2)cc1F` (stereo not drawn) [Example 69]: 3.99; `Cc1cc(-c2ccccc2NC(=O)C2=C(C(F)(F)F)OC(C)CS2)ccc1F` (stereo not drawn) [Example 70]: 3.99. Turning to `CC1CSC(C(=O)Nc2ccccc2-c2ccc(C(F)(F)F)c(F)c2)=C(C(F)(F)F)O1` (stereo not drawn) [Example 71], the log partition coefficient (logP) turned out to be 4.08.

As for `O=C(Nc1ccc(F)cc1-c1cc(F)cc(F)c1)C1=C(C(F)(F)F)OCCS1` [Example 73], the lipophilicity (logP) was 3.49. For `O=C(Nc1c(F)cccc1-c1cc(F)cc(F)c1)C1=C(C(F)(F)F)OCCS1` [Example 74], the logP is 3.20. For `O=C(Nc1cc(F)ccc1-c1cc(F)cc(F)c1)C1=C(C(F)(F)F)OCCS1` [Example 75], the log partition coefficient (logP) is 3.70.

In turn, `CCCCCCc1ccccc1NC(=O)C1=C(C(F)(F)F)OCCS1` [Example 76] came in with a logP of 4.25.

`CCCC(CC)c1ccccc1NC(=O)C1=C(C(F)(F)F)OCCS1` (stereo not drawn) [Example 77] came in with a logP of 4.07. `N#Cc1ccc(-c2ccccc2NC(=O)C2=C(C(F)(F)F)OCCS2)cc1` [Example 78] showed a logP of 2.87. Still for that read-out and setting: next, `O=C(Nc1ccccc1-c1ccc(Cl)c(Cl)c1)C1=C(C2CC2)OCCS1` [Example 80]: 3.53.

`CC(CC(C)(C)C)c1ccccc1NC(=O)C1=C(C(F)F)OCCS1` (stereo not drawn) [Example 81] yielded a lipophilicity (logP) of 4.29.

Consider `CC1CC(C)(C)c2cccc(NC(=O)C3=C(C(F)F)OCCS3)c21` (stereo not drawn) [Example 83], for which the log partition coefficient (logP) is given as 4.00. Take `O=C(Nc1ccccc1-c1ccc(Cl)c(Cl)c1)C1=C(C(F)F)OCCS1` [Example 84]: the logP is listed as 3.92.

The series is the same for the next values; noted with them: reversed-phase C18 HPLC column, pH 2.3, C18, 43° C., read-out: logP (pH 2.3).
On to `CO/N=C/c1ccc(-c2ccccc2NC(=O)C2=C(C(F)(F)F)OCCS2)cc1` [Example 1, N-[4′-(methoxyiminomethyl)-biphenyl-2-yl]-6-trifluoromethyl-2,3-dihydro-1,4-oxathiin-5-carboxamide], for which the chromatographic logP stood at 3.51.

For orientation: logP means a log measure of how a compound divides between an organic and an aqueous phase.
